Measurements taken from patent US20080171783A1, “COMPOSITIONS AND METHODS FOR TREATING HYPERPROLIFERATIVE DISEASE” (Migenix Inc., priority 2006, published 2008).

Assays:
HL-60(TB) = assay: NCI In Vitro Cell Line Screening (SRB); type: cell-based, human; conditions: Leukemia, 48 h; for GI50: Homo sapiens
RPMI-8226 = assay: NCI In Vitro Cell Line Screening (SRB); type: cell-based, human; conditions: RPMI-8226, Leukemia, 48 h
SR = assay: NCI In Vitro Cell Line Screening (SRB); type: cell-based; conditions: Leukemia, 48 h
A549/ATCC = assay: NCI In Vitro Cell Line Screening (SRB); type: cell-based; conditions: Non-Small Cell Lung Cancer, 48 h; for GI50 / CC50: Homo sapiens; for CC50: read-out: LC50 (the source's name)
NCI-H226 = assay: NCI In Vitro Cell Line Screening (SRB); type: cell-based, human; conditions: NCI-H226, Non-Small Cell Lung Cancer, 48 h; for GI50 / LC50 (concentration killing 50% of cells): Homo sapiens
NCI-H322M = assay: NCI In Vitro Cell Line Screening (SRB); type: cell-based, human; conditions: Non-Small Cell Lung Cancer, 48 h; for GI50 / CC50: Homo sapiens; for CC50: read-out: LC50 (the source's name)
NCI-H460 = assay: NCI In Vitro Cell Line Screening (SRB); type: cell-based, human; conditions: NCI-H460, Non-Small Cell Lung Cancer, 48 h; for GI50 / CC50: Homo sapiens; for CC50: read-out: LC50 (the source's name)
NCI-H522 = assay: NCI In Vitro Cell Line Screening (SRB); type: cell-based, human; conditions: NCI-H522, Non-Small Cell Lung Cancer, 48 h
HCC-2998 = assay: NCI In Vitro Cell Line Screening (SRB); type: cell-based; conditions: HCC-2998, Colon Cancer, 48 h; for GI50 / LC50 (lethal concentration, 50% cell kill): Homo sapiens
SF-295 = assay: NCI In Vitro Cell Line Screening (SRB); type: cell-based, human; conditions: SF-295, CNS Cancer, 48 h; for GI50 / CC50: Homo sapiens; for CC50: read-out: LC50 (the source's name)
SF-539 = assay: NCI In Vitro Cell Line Screening (SRB); type: cell-based, human; conditions: SF-539, CNS Cancer, 48 h; for GI50 / CC50: Homo sapiens; for CC50: read-out: LC50 (the source's name)
LOX IMVI = assay: NCI In Vitro Cell Line Screening (SRB); type: cell-based, human; conditions: Melanoma, 48 h; for GI50 / LC50: Homo sapiens
A498 = assay: NCI In Vitro Cell Line Screening (SRB); type: cell-based, human; conditions: A498, Renal Cancer, 48 h; for GI50 / CC50: Homo sapiens; for CC50: read-out: LC50 (the source's name)
NCI/ADR-RES = assay: NCI In Vitro Cell Line Screening (SRB); type: cell-based, human; conditions: Breast Cancer, 48 h; for GI50 / CC50: Homo sapiens; for CC50: read-out: LC50 (the source's name)
MDA-MB-435 = assay: NCI In Vitro Cell Line Screening (SRB); type: cell-based, human; conditions: MDA-MB-435, Breast Cancer, 48 h; for GI50 / CC50: Homo sapiens; for CC50: read-out: LC50 (the source's name)
T-47D = assay: NCI In Vitro Cell Line Screening (SRB); type: cell-based, human; conditions: Breast Cancer, 48 h
HCT-15 = assay: Cell viability by XTT; type: cell-based; conditions: HCT-15, single dose 10 μM, four days
Experimental: Compounds were solubilized at […] in DMSO and were stored at −20° C. Test compounds were initially tested at a single concentration of 10 μM and a subset of test compounds were further tested in selected cell lines using a six concentration dose response curve.
Cell Preparation Cancer cell lines were passaged in T-75 flasks prior to use in the assay in cell culture medium recommended by the ATCC (American Type Culture Collection; Table 6). On the day preceding the assay, the cells were split 1:2 to assure they were in an exponential growth phase at the time of compound treatment. Total cell and viability quantification was performed using a hemocytometer and Trypan Blue dye exclusion. […] The cells were resuspended at the appropriate cell per mL (Table 6) in tissue culture medium and added to the microtitre plates in a volume of 100 μL. Colon cell lines were incubated overnight at 37° C./5% CO2 to allow for cell adherence to the plates.
Plate Format: Each plate contains cell control wells (cells only), drug calorimetric control wells (drug only) as well as experimental wells (drug plus cells). Samples were tested in triplicate at a concentration of 10 μM and five half-logarithmic dilutions.
Cell Viability by XTT: Following incubation at 37° C. in a 5% CO2 incubator for four days, the test plates were stained with the tetrazolium dye XTT (2,3-bis(2-methoxy-4-nitro-5-sulfophenyl)-5-[(phenylamino)carbonyl]-2H-tetrazolium hydroxide). XTT-tetrazolium was metabolized by the mitochondrial enzymes of metabolically active cells to a soluble formazan product. XTT solution was prepared daily as a stock of 1 mg/mL in RPMI1640. Phenazine methosulfate (PMS) solution was prepared at 0.15 mg/mL in phosphate buffered saline (PBS) and stored in the dark at −20° C. XTT/PMS stock was prepared immediately before use by adding 40 μL of PMS per mL of XTT solution. Fifty (50) microlitres of XTT/PMS was added to each well of the plate and the plate was reincubated for 4 hours at 37° C. Plates were sealed with adhesive plate sealers and shaken gently or inverted several times to mix the soluble formazan product and the plate was read spectrophotometrically at 450/650 nm with a Molecular Devices Vmax plate reader. […] An Average Response Factor (ARF) was calculated for each compound by averaging the ten Percentage of Control values for the cell lines. […] Deviations below 100% control indicate activity. The concentration of each tested compound is 10 μM.

[1] = test system: 5 Leukemia and 5 Colon Cancer Cell Lines; assay: Cell viability by XTT, cell line panel; type: cell-based; conditions: for Range (Percentage of Control over the same 10 cell lines): 10 μM, lowest to highest of the ten cell lines; for viability at 10 µM: average of the ten Percentage of Control values, read-out: ARF (Average Response Factor, Average Percentage of Control)
How it was run: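 Leukemia and colon cancer lines in exponential growth were exposed to compounds for four days at 37 °C/5% CO2, with colon lines allowed overnight adherence beforehand. Viability read by XTT/PMS reduction (4 h) at 450/650 nm; percent of control at 10 μM averaged over ten lines as ARF.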

OVCAR-3 = assay: NCI In Vitro Cell Line Screening (SRB); conditions: for GI50 / CC50: Homo sapiens, OVCAR-3, 48 h; for CC50: read-out: LC50; for TGI: OVCAR-3, Ovarian Cancer, 48 h
MDA-MB-468 = assay: NCI In Vitro Cell Line Screening (SRB); conditions: for TGI: MDA-MB-468, Breast Cancer, 48 h
[2] = Homo sapiens, read-out: LC50 (the source's name)

CC(C)(C)c1ccc(NC(=O)[C@H](CCCCN)NC(=O)OCC2c3ccccc3-c3ccccc32)cc1 [Compound 105, (S)-[5-AMINO-1-(4-TERT-BUTYL-PHENYLCARBAMOYL)-PENTYL]-CARBAMIC ACID 9H-FLUOREN-9-YLMETHYL ESTER]
GI50 (HL-60(TB)): 1.54 µM | TGI (HL-60(TB)): 3.47 µM | GI50 (RPMI-8226; Homo sapiens): 1.71 µM | TGI (RPMI-8226): 3.78 µM | GI50 (SR; Homo sapiens): 0.403 µM | CC50 (SR; [2]): > 100 µM | GI50 (A549/ATCC): 1.77 µM | CC50 (A549/ATCC): > 100 µM | TGI (A549/ATCC): 23.5 µM | GI50 (NCI-H226): 22.2 µM | LC50 (concentration killing 50% of cells) (NCI-H226): 89.2 µM | TGI (NCI-H226): 44.4 µM | GI50 (NCI-H322M): 13.5 µM | CC50 (NCI-H322M): 69.9 µM | TGI (NCI-H322M): 30.7 µM | GI50 (NCI-H460): 1.13 µM | CC50 (NCI-H460): 5.37 µM | TGI (NCI-H460): 2.47 µM | GI50 (NCI-H522; Homo sapiens): 2.1 µM | TGI (NCI-H522): 4.43 µM | TGI (HCC-2998): 2.88 µM | GI50 (HCC-2998): 1.39 µM | LC50 (lethal concentration, 50% cell kill) (HCC-2998): 5.96 µM | GI50 (SF-295): 3.74 µM | CC50 (SF-295): 65.3 µM | TGI (SF-295): 19.0 µM | GI50 (SF-539): 1.48 µM | CC50 (SF-539): 5.63 µM | TGI (SF-539): 2.89 µM | GI50 (LOX IMVI): 1.81 µM | LC50 (LOX IMVI): 6.42 µM | TGI (LOX IMVI): 3.41 µM | TGI (A498): 0.665 µM | GI50 (A498): 0.116 µM | CC50 (A498): 15.5 µM | TGI (NCI/ADR-RES): 1.1 µM | GI50 (NCI/ADR-RES): < 0.01 µM | CC50 (NCI/ADR-RES): 30.5 µM | GI50 (MDA-MB-435): 4.27 µM | CC50 (MDA-MB-435): 87.1 µM | TGI (MDA-MB-435): 21.7 µM | TGI (T-47D): 3.08 µM | GI50 (T-47D; Homo sapiens, T47D): 1.45 µM | Percentage of Cell Control (HCT-15): 85.6% | Range (Percentage of Control over the same 10 cell lines) [1]: 0 to 110.8% | viability at 10 µM [1]: 53.4% | GI50 (OVCAR-3): 16.1 µM | CC50 (OVCAR-3): 56.3 µM | TGI (OVCAR-3): 30.1 µM | GI50 (MDA-MB-468; Homo sapiens, MDA-MB-468, 48 h): 1.46 µM | TGI (MDA-MB-468): 3.27 µM

Cc1ccc(NC(=O)[C@@H](CCCCN)NC(=O)Nc2ccc3c(c2)Cc2ccccc2-3)cc1 [Compound 173, (R)-6-AMINO-2-[3-(9H-FLUOREN-2-YL)-UREIDO]-HEXANOIC ACID P-TOLYLAMIDE]
GI50 (HL-60(TB)): 1.77 µM | TGI (HL-60(TB)): 3.79 µM | GI50 (RPMI-8226; Homo sapiens): 1.59 µM | CC50 (RPMI-8226; [2]): > 100 µM | TGI (RPMI-8226): 4.87 µM | GI50 (SR; Homo sapiens): 1.3 µM | TGI (SR): 3.41 µM | GI50 (A549/ATCC): 1.55 µM | CC50 (A549/ATCC): 7.66 µM | TGI (A549/ATCC): 3.45 µM | GI50 (NCI-H226): 1.62 µM | LC50 (concentration killing 50% of cells) (NCI-H226): 45.6 µM | TGI (NCI-H226): 9.56 µM | GI50 (NCI-H322M): 2.54 µM | CC50 (NCI-H322M): 39.8 µM | TGI (NCI-H322M): 12.0 µM | GI50 (NCI-H460): 1.86 µM | CC50 (NCI-H460): 6.33 µM | TGI (NCI-H460): 3.43 µM | GI50 (NCI-H522; Homo sapiens): 4.15 µM | LC50 (NCI-H522; Homo sapiens): > 100 µM | TGI (NCI-H522): 23.5 µM | TGI (HCC-2998): 4.88 µM | GI50 (HCC-2998): 2.22 µM | LC50 (lethal concentration, 50% cell kill) (HCC-2998): 17.5 µM | GI50 (SF-295): 0.341 µM | CC50 (SF-295): 5.17 µM | TGI (SF-295): 2.07 µM | GI50 (SF-539): 1.92 µM | CC50 (SF-539): 11.9 µM | TGI (SF-539): 4.48 µM | GI50 (LOX IMVI): 1.4 µM | LC50 (LOX IMVI): 5.2 µM | TGI (LOX IMVI): 2.70 µM | TGI (A498): 8.26 µM | GI50 (A498): 1.99 µM | CC50 (A498): 37.9 µM | TGI (NCI/ADR-RES): >100 µM | GI50 (NCI/ADR-RES): > 100 µM | CC50 (NCI/ADR-RES): > 100 µM | GI50 (MDA-MB-435): 1.98 µM | CC50 (MDA-MB-435): 24.3 µM | TGI (MDA-MB-435): 6.21 µM | TGI (T-47D): 3.78 µM | GI50 (T-47D; Homo sapiens, T47D): 1.7 µM | CC50 (T-47D; Homo sapiens, T47D, read-out: LC50 (the source's name)): 8.41 µM | Range (Percentage of Control over the same 10 cell lines) [1]: 4.3 to 108.6% | viability at 10 µM [1]: 76.8% | GI50 (OVCAR-3): 1.31 µM | CC50 (OVCAR-3): 31.6 µM | TGI (OVCAR-3): 9.94 µM | GI50 (MDA-MB-468; Homo sapiens, MDA-MB-468, 48 h): 1.66 µM | CC50 (MDA-MB-468; Homo sapiens, MDA-MB-468, 48 h, read-out: LC50): 8.31 µM | TGI (MDA-MB-468): 3.72 µM
